pEC50, pIC50: −log10 of the molar value.
Assays:
dN-SARM1 protein [1] = biological target: T1, dN-SARM1 protein (Homo sapiens, UniProt Q6SZW1); experiment: In vitro biochemical assay for inhibiting SARM1 enzymatic activity (% inhibition rate), PC6 fluorescence method; conditions: 20 μM compound; 50 μM NAD, 50 μM PC6, 50 μM NMN activator
T1 construct: the N-terminal mitochondrial localization signal peptide of SARM1 was removed
T1 sequence (Q6SZW1 28-724): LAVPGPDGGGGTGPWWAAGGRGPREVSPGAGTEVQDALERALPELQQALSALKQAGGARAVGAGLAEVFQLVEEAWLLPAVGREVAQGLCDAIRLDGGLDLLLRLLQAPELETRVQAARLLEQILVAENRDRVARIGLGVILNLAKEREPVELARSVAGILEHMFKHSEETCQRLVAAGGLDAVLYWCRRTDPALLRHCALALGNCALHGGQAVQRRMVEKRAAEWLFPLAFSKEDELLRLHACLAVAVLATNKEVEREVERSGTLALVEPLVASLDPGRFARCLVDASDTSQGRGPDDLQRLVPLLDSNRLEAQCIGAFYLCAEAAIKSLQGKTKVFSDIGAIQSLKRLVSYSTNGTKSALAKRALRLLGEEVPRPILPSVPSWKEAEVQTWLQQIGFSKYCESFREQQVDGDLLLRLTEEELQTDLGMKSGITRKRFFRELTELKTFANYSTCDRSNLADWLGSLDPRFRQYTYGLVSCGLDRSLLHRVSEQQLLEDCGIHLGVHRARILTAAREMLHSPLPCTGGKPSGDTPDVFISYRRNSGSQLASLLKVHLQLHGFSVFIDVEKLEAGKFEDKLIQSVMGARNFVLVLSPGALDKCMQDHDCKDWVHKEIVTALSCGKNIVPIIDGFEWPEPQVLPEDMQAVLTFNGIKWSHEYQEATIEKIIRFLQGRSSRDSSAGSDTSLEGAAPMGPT
Method: The compounds were subjected to PC6 fluorescence method measurement [Chinese Patent 202010528147.3] using the dN-SARM1 protein obtained through “(4) Protein extraction” in “Expression and purification of SARM1 protein” in the above biological activity example 1.
First, 0.05 μg/ml dN-SARM1 and 20 μM compound were incubated in 50 mM Tris-HCl (pH 7.5) solution for 10 min, and then added with 50 μM NAD and 50 μM PC6 as substrate and 50 μM NMN as activator for 30 minutes of reaction at room temperature. The concentration of each component was the final concentration in the reaction system.
During the reaction, PC6 fluorescence spectrum dynamics were detected by a microplate reader, wherein the excitation wavelength and emission wavelength for detection were 390 nm and 520 nm, respectively. Finally, the reaction rate was used to express the activity of the protein. The higher the reaction rate, the stronger the activity of the protein and the lower the inhibitory efficiency of the compound.

[2] = biological target: T2, SARM1 protein in iSARM1 (HEK293) cells (Homo sapiens, UniProt Q6SZW1); experiment: Inhibitory activity in inducible SARM1 overexpressing cell line, intracellular cADPR level; assay type: cell-based; conditions: activator CZ-48 100 μM, cADPR content
T2 construct: The full-length SARM1 was synthesized into the pUC57 plasmid by WZ Biosciences Inc., and PCR was performed using pUC57-SARM1 as a DNA template
T2 sequence (Q6SZW1 28-724): T1 sequence (Q6SZW1 28-724)
Summary of the method: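 Inducible SARM1-overexpressing HEK293 cells preincubated 1.5 h with inhibitor (50 μM final), then activated with 100 μM CZ-48 for 16 h. Intracellular cADPR extracted with perchloric acid, NAD+ removed by NADase, and quantified by cyclase-coupled resazurin cycling assay (Ex/Em 544/599, 30 min kinetics) against cADPR standards; inhibition rate and IC50 calculated.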

dN-SARM1 protein [3] = biological target: T1, dN-SARM1 protein; experiment: In vitro biochemical assay for inhibiting SARM1 enzymatic activity (IC50), PC6 fluorescence method; conditions: 50 μM NAD, 50 μM PC6, 50 μM NMN activator
Summary of the method: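 dN-SARM1 (0.05 μg/ml, 50 mM Tris-HCl pH 7.5) preincubated 10 min at room temperature with compound in serial dilution from 200 μM. Reaction started with final 50 μM NAD, 50 μM PC6 substrate and 50 μM NMN activator, 30 min at room temperature. PC6 fluorescence (ex 390/em 520 nm) rate gives activity; IC50 derived.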

| Compound | inhibition at 20 µM (dN-SARM1 protein [1]) | pEC50 [2] | pIC50 (dN-SARM1 protein [3]) |
| --- | --- | --- | --- |
| CC(C)(C)OC(=O)Nc1ccc2ncc(-c3cccc(NC(=O)COCCOCCOCC(=O)Nc4cccc(-c5cnc6ccc(NC(=O)OC(C)(C)C)cn56)c4)c3)n2c1 [Compound 123] | > 90% | > 6.00 | > 6.00 |
| FC(F)(F)c1ccc2ncc(-c3ccccc3)n2c1 [Compound 25] | > 90% | 5.00 to 6.00 | 5.00 to 6.00 |
| CC(C)(C)OC(=O)N(c1ccccc1)c1ccc2ncc(-c3ccccc3)n2c1 [Compound 90] | > 90% | 5.00 to 6.00 | 5.00 to 6.00 |
| c1ccc(Nc2ccc3ncc(-c4ccccc4)n3c2)cc1 [Compound 75] | > 90% | > 6.00 | 5.00 to 6.00 |
| CNc1ccc2ncc(-c3cccc(NC(=O)COCCOCCOCC(=O)Nc4cccc(-c5cnc6ccc(NC)cn56)c4)c3)n2c1 [Compound 79] | > 90% | 5.00 to 6.00 | > 6.00 |
| CC(C)(C)OC(=O)Nc1ccc2ncc(-c3cccc(NC(=O)COCCOCC(=O)Nc4cccc(-c5cnc6ccc(NC(=O)OC(C)(C)C)cn56)c4)c3)n2c1 [Compound 122] | > 90% | > 6.00 | > 6.00 |
| CC(C)(C)OC(=O)Nc1ccc2ncc(I)n2c1 [Compound 44] | 50 to 89% | 5.00 to 6.00 | 5.00 to 6.00 |
| CN(C(=O)OC(C)(C)C)c1ccc2ncc(-c3cccc(NC(=O)C4CCOCC4)c3)n2c1 [Compound 49] | > 90% | > 6.00 | 5.00 to 6.00 |
| c1cn2cc(N3CCOCC3)ccc2n1 [Compound 32] | > 90% | 5.00 to 6.00 | 5.00 to 6.00 |
| CN(C(=O)OC(C)(C)C)c1ccc2ncc(-c3ccc(N)cc3)n2c1 [Compound 40] | > 90% | 5.00 to 6.00 | 5.00 to 6.00 |
| COCCOCC(=O)Nc1cccc(-c2cnc3ccc(NC(=O)C(C)(C)C)cn23)c1 [Compound 130] | > 90% | 5.00 to 6.00 | > 6.00 |
| COCCOCC(=O)Nc1cccc(-c2cnc3ccc(NC(=O)C4CC4)cn23)c1 [Compound 129, N-(3-(3-(2-(2-methoxyethoxy)acetamido)phenyl)imidazo[1,2-a]pyridin-6-yl)cyclopropanecarboxamide] | > 90% | 5.00 to 6.00 | > 6.00 |
| c1ccc(-c2cnc3ccc(N4CCOCC4)cn23)cc1 [Compound 34] | > 90% | 5.00 to 6.00 | 5.00 to 6.00 |
| CNc1ccc2ncc(-c3cccc(NC(=O)COCCOCC(=O)Nc4cccc(-c5cnc6ccc(NC)cn56)c4)c3)n2c1 [Compound 78] | > 90% | 5.00 to 6.00 | > 6.00 |
| COCCOCC(=O)Nc1cccc(-c2cnc3ccc(C)cn23)c1 [Compound 53] | > 90% |  | 5.00 to 6.00 |
| CNc1ccc2ncc(-c3ccccc3)n2n1 [Compound 20] | 50 to 89% | 5.00 to 6.00 | > 6.00 |
| CNc1ccc2ncc(-c3cccc(OCCOCCOC)c3)n2c1 [Compound 153] | > 90% |  | 5.00 to 6.00 |
| CNc1ccc2ncc(C(=O)Nc3ccccc3)n2c1 [Compound 105, 6-(methylamino)-N-phenylimidazo[1,2-a]pyridin-3-carboxamide] | > 90% | 5.00 to 6.00 | 5.00 to 6.00 |
| COCCOCCNS(=O)(=O)c1cccc(-c2cnc3ccc(N(C)C(=O)OC(C)(C)C)cn23)c1 [Compound 108, tert-butyl (3-(3-(N-(2-(2-methoxyethoxy)ethyl)sulfamoyl)phenyl)imidazo[1,2-a]pyridin-6-yl)(methyl)carbamate] | 50 to 89% |  | 5.00 to 6.00 |
| CNc1ccc2ncc(-c3cccc(C(=O)NCCOCCOC)c3)n2c1 [Compound 134] | > 90% |  | > 6.00 |
| CN(C(=O)OC(C)(C)C)c1ccc2ncc(-c3cccc(NC(=O)COCCOCCOCC(=O)Nc4cccc5c4CN(C4CCC(=O)NC4=O)C5=O)c3)n2c1 (centres unmarked) [Compound 115, tert-butyl (3-(3-(2-(2-(2-(2-((2-(2,6-dioxopiperidin-3-yl))-1-oxoisoindolin-4-yl)amino)-2-oxoethoxy)ethoxy)ethoxy)acetamido)phenyl)imidazo[1,2-a]pyridin-6-yl)(methyl) carbamate] | > 90% | 5.00 to 6.00 | > 6.00 |
| Brc1cnc2ccc(N3CCOCC3)cn12 [Compound 33] | > 90% | 5.00 to 6.00 | 5.00 to 6.00 |
| COCCOCC(=O)Nc1ccc(-c2cnc3ccc(N(C)C(=O)OC(C)(C)C)cn23)cc1 [Compound 50] | > 90% | 5.00 to 6.00 | 5.00 to 6.00 |

Reference: patent US20240368168A1, “SARM1 ENZYME ACTIVITY INHIBITOR AND APPLICATION THEREOF” (ARTIVILA BIOPHARMA, priority 2021, published 2024)
